The record followed here is patent publication US20100120618A1, “HERBICIDAL COMPOSITION” (SYNGENTA CROP PROTECTION, INC., priority 2007, published 2010).

In test [1] the test system is winter wheat. Briefly: Post-emergence test, herbicidal activity on winter wheat. It is filed as in vivo. As to conditions: 21 days after application, average of 3 tests. An excerpt:
(§1) The test plants (Avena and winter wheat) are raised under greenhouse conditions in seed trays to a post-application stage (1.5- to 2-leaf stage). Pinoxaden is then applied to the test plants either alone or in admixture with component b) and optionally c). For both applications an additive is used which contains per litre 45% by weight Agnique ME 18 RD-F and 25% by weight Emulsogen M in Solvesso 200 ND. Application of pinoxaden is effected in the form of an emulsifiable concentrate (EC 100), and component b) and optionally c) is used in the form of WP 25. Those formulations are used to prepare spray mixtures, each of 200 litres, which contain 50 g or 100 g of pinoxaden and component b) and optionally c) and in each case 0.5% of additive (based on the volume of the spray mixtures). The tests are evaluated 21 days after application (herbicidal activity 100%=plant completely dead; herbicidal activity 0%=no phytotoxic action on the plant). The results, which are values averaged from 3 tests, are compiled in the following Table.

The test system of test [2] is Avena. In words: Post-emergence test, herbicidal activity on Avena. In kind it is in vivo. To be noted: 21 days after application, average of 3 tests.
Description: as §1

Where [3] appears, read: 100 g/ha pinoxaden + 0.5% additive.

Consider `CCc1cc(C)cc(CC)c1-c1c(OC(=O)C(C)(C)C)n2n(c1=O)CCOCC2` [pinoxaden], for which the “Herbicidal activity on Winter wheat” value in test [1] (50 g/ha pinoxaden + 0.5% additive, 0%=no phytotoxic action) was determined as 8%; in test [1] (setting [3]), 8%. Besides, the “Herbicidal activity on Avena” value in test [2] (50 g/ha pinoxaden + 0.5% additive, 100%=plant completely dead) was 82%; in test [2] (setting [3]), 87%.
